Laboratory results as given in patent publication US20110201603A1, “Novel Acylaminobenzamide Derivatives” (Bayer CropScience AG, priority 2008, published 2011).

Legend:
Assay type in all cases: in vivo
[1] = tested on: mustard beetle larvae (Phaedon cochleariae); assay: Phaedon cochleariae test (PHAECO spray application); settings: application rate of 500 g/ha; Chinese cabbage leaf-disks; after 7 days
Method: Solvent: 78.0 parts by weight of acetone and 1.5 parts by weight of dimethylformamide
Emulsifier: 0.5 parts by weight of alkylaryl polyglycolether
To produce a suitable preparation of active compound, 1 part by weight of active compound is mixed with the stated amount of solvent and emulsifier, and the concentrate is diluted with emulsifier-containing water to the desired concentration. Chinese cabbage (Brassica pekinesis) leaf-disks are sprayed with a preparation of the active ingredient of the desired concentration. Once dry, the leaf disks are infested with mustard beetle larvae (Phaedon cochleariae). After 7 days mortality in % is determined. 100% means that all beetle larvae have been killed and 0% means that none of the beetle larvae have been killed.

Lucilia cuprina larvae = assay: Lucilia cuprina test; settings: application rate of 100 ppm; larvae on minced horse meat; after 2 days
Method: (§1) Solvent: dimethyl sulfoxide
To produce a suitable preparation of active compound, 10 mg of active compound are dissolved in 0.5 ml solvent, and the concentrate is diluted with water to the desired concentration. Approximately 20-30 (Lucilia cuprina larvae) are transferred into a test tube containing 1 cm^3 of minced horse meat and 0.5 ml aqueous dilution of test compound. After 2 days mortality in % is determined. 100% means that all the larvae have been killed; 0% means that none of the larvae have been killed.

Musca domestica = Musca domestica test; settings: application rate of 100 ppm; adults, sugar sponge; after 2 days
Method: as §1
To produce a suitable preparation of active compound, 10 mg of active compound are dissolved in 0.5 ml solvent, and the concentrate is diluted with water to the desired concentration. Prior to the assay, a piece or kitchen sponge is soaked with a mixture of sugar and compound solution and placed into a container. 10 adults (Musca domestica) are placed into the container and closed with a perforated lid. After 2 days mortality in % is determined. 100% means that all the flies have been killed; 0% means that none of the flies have been killed.

[2] = tested on: tobacco cutworm (Spodoptera litura) larvae; assay: Test against tobacco cutworm (Spodoptera litura) larvae, leaf dip; settings: active compound concentration of 100 ppm; third-instar larvae on sweet potato leaves; after 7 days
Summary of the method: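 Sweet potato leaves dipped in compound diluted in water (DMF solvent, polyoxyethylene alkyl phenyl ether emulsifier), air-dried, and given to ten third-instar larvae per dish at 25 °C, with fresh leaves on days 2 and 4. Mortality (%) scored after 7 days, averaged over two dishes.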

Ctenocephalides felis = Ctenocephalides felis test (CTECFE), blood feeding; settings: application rate of 100 ppm in cattle blood; adult unfed fleas; after 2 days
Method: as §1
To produce a suitable preparation of active compound, 10 mg of active compound are dissolved in 0.5 ml solvent, and the concentrate is diluted with cattle blood to the desired concentration.
Approximately 10 to 15 adult unfed (Ctenocepahlides felis) are placed in flea chambers. The blood chamber, are sealed with paraffin on the bottom are filled with cattle blood supplied with compound solution and placed on top of the flea chamber, so that the fleas are able to suck the blood. The blood chamber is heated to 37° C. whereas the flea chamber is kept at room temperature. After 2 days mortality in % is determined. 100% means that all the fleas have been killed; 0% means that none of the fleas have been killed.

[3] = tested on: cucurbit leaf beetle (Aulacophora femoralis); assay: Test against cucurbit leaf beetle (Aulacophora femoralis), leaf dip; settings: active compound concentration of 100 ppm; second-instar larvae on cucumber leaves; after 7 days
Summary of the method: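 Cucumber leaves dipped in compound solution (DMF solvent, polyoxyethylene alkyl phenyl ether emulsifier, water-diluted), air-dried, offered to five second-instar larvae on soil at 25° C. Mortality counted after 7 days, expressed as percent insecticidal activity.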

Boophilus microplus = Boophilus microplus test (injection); settings: application rate of 20 μg/animal; injection into adult engorged female ticks; after 7 days
Method: as §1
To produce a suitable preparation of active compound, 10 mg of active compound are dissolved in 0.5 ml solvent, and the concentrate is diluted with solvent to the desired concentration. Five adult engorged female ticks (Boophilus microplus) are injected with compound solution into the abdomen. Ticks are transferred into replica plates and incubated in a climate chamber for a period of time. Egg deposition of fertile eggs is monitored. After 7 days mortality in % is determined. 100% means that all eggs are infertile; 0% means that all eggs are fertile.

Q: Cc1cc(C(n2nc(C)c(Br)c2C)C(F)(F)F)cc(C)c1NC(=O)c1cccc([N+](=O)[O-])c1 (racemic) [11-143] was tested. Which “activity (mortality in %)” value [1] did it give?
A: 100%

Q: Which “activity (mortality in %)” value (Lucilia cuprina larvae) does the source give for Cc1cc(C(n2cc(C(F)(F)F)cn2)C(F)(F)C(F)(F)F)cc(C)c1NC(=O)c1cccc(NC(=O)c2cccnc2Cl)c1 (stereo not drawn) [2-104] here?
A: 90%

Q: And the “activity (mortality in %)” value (Musca domestica)?
A: 80%

Q: What about the insecticidal activity [2] of the same compound?
A: 100%

Q: What about the “activity (mortality in %)” value (Ctenocephalides felis) of the same compound?
A: 100%

Q: And the insecticidal activity [3]?
A: 100%

Q: Which “activity (mortality in %)” value (Lucilia cuprina larvae) does the source give for Cc1cc(C(n2nc(C(F)(F)F)cc2C(F)(F)F)(C(F)(F)F)C(F)(F)F)cc(C)c1NC(=O)c1cccc(NC(=O)c2ccccc2F)c1 [2-124] here?
A: 90%

Q: What about the insecticidal activity [2] of the same compound?
A: 100%

Q: Which “activity (mortality in %; 100% means all eggs are infertile)” value (Boophilus microplus) does the source give for CCc1cc(C(n2cc(C(F)(F)F)cn2)(C(F)(F)F)C(F)(F)F)cc(C)c1NC(=O)c1cccc(N)c1 [11-114] here?
A: 80%
